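Interpolation was linear, between the two tested concentrations surrounding the appropriate level; five concentrations were tested over 48 hours in 96-well plates. GI50: concentration for 50% inhibition of growth. Definition used: TGI = concentration required for complete inhibition of growth.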

Some test systems named below: SNB-75 CNS; KM12 colon; MCF7 breast; SK-MEL-28 melanoma; UACC-62 melanoma; HCC-2998 colon; A498 renal; RXF 393 renal; 786-0 renal; MALME-3M melanoma.
What all share (test): DTP human tumour cell line panel, 48 h

For the compound `CCN(CC)c1ccc2nc3ccc(=[N+](CC)CC)cc-3oc2c1`, the GI50 is 1.31 µM in the assay on SNB-75 CNS; 0.122 µM in the assay on KM12 colon; 0.029 µM in the assay with MCF7 breast; 1.5 µM in the assay with SK-MEL-28 melanoma; 0.756 µM in the assay on UACC-62 melanoma; 0.395 µM in the assay with HCC-2998 colon. Moreover, the GI50 with A498 renal was 1.01 µM; in the assay on RXF 393 renal it was 1.63 µM; in the assay on 786-0 renal, 1.18 µM; in the assay with MALME-3M melanoma, 0.115 µM. In addition, the concentration for total growth inhibition (TGI) in the assay with SNB-75 CNS stood at 6.85 µM; in the assay with KM12 colon it was 8.13 µM; in the assay on MCF7 breast, 0.276 µM; in the assay with SK-MEL-28 melanoma it was 27.7 µM; in the assay with UACC-62 melanoma, 4.33 µM; with HCC-2998 colon, 39.4 µM. The TGI in the assay with A498 renal stood at 17.5 µM; in the assay with RXF 393 renal, 9.84 µM; in the assay with 786-0 renal, 2.6 µM; with MALME-3M melanoma, 0.628 µM.
Turning to `COCCN(Cc1ccc(F)cc1)c1ccc(CO)c(Cl)c1`, the GI50 in the assay with SNB-75 CNS was 16.6 µM; in the assay with KM12 colon it was 33.8 µM; in the assay on MCF7 breast, 2.79 µM; in the assay with SK-MEL-28 melanoma it was 31.3 µM; with UACC-62 melanoma, 0.653 µM; with HCC-2998 colon, 24 µM. Also, the GI50 is 0.048 µM in the assay with A498 renal, 4.9 µM with RXF 393 renal, 23.1 µM in the assay with 786-0 renal and over 57.1 µM in the assay on MALME-3M melanoma. For the same compound, the total growth inhibition concentration (TGI) is over 87.4 µM in the assay on SNB-75 CNS; over 100 µM in the assay with KM12 colon; over 100 µM with MCF7 breast; over 100 µM in the assay on SK-MEL-28 melanoma; 4.28 µM with UACC-62 melanoma; over 100 µM in the assay with HCC-2998 colon. The TGI in the assay on A498 renal is 0.193 µM; in the assay with RXF 393 renal, over 34.6 µM; in the assay with 786-0 renal, over 82.3 µM; with MALME-3M melanoma, over 100 µM.
`CCO/C=C1\SC(=S)N(c2ccc(OCC)cc2)C1=O`: the TGI with SNB-75 CNS, in the assay on KM12 colon, in the assay on MCF7 breast, in the assay on SK-MEL-28 melanoma, in the assay with UACC-62 melanoma and with HCC-2998 colon was over 100 µM throughout. The TGI in the assay with A498 renal, in the assay with RXF 393 renal, in the assay with 786-0 renal and in the assay with MALME-3M melanoma was over 100 µM in each case.
